Experimental data: patent US5658501A, “Substituted naphthopyrans” (Transitions Optical, Inc., priority 1995, dated 1997)

Tests used:
[1] = photochromic response rates on an optical bench (test squares); format: physicochemical; details: for ΔOD @ SATURATION: UV exposure continued for 20 minutes, same test squares; for ΔOD @ SATURATION / ΔOD/MIN SENSITIVITY: 75° F. (23.9° C.); for ΔOD/MIN SENSITIVITY: measured over first five seconds of UV exposure, expressed per minute, 1.5 x 10^-3 molal in BPA 2EO DMA / poly(ethyleneglycol) 600 dimethacrylate polymer; for Bleach Rate (T1/2): time for absorbance of activated form to reach one half the highest absorbance, room temperature (75° F., 23.9° C.), after removal of activating light
Method: Testing was done with the photochromic naphthopyrans of the Examples incorporated into polymeric samples by the following method. The quantity of naphthopyran calculated to yield a 1.5 time 10^-3 molal solution was added to a flask containing 50 grams of a monomer blend of 4 parts ethoxylated bisphenol A dimethacrylate (BPA 2EO DMA), 1 part poly(ethyleneglycol) 600 dimethacrylate, and 0.033 weight percent 2,2'-azobis (2-methyl propionitrile) (AIBN). The naphthopyran was dissolved into the monomer blend by stirring and gentle heating, if necessary. After a clear solution was obtained, it was poured into a flat sheet mold having the interior dimensions of 2.2 mm×6 inches (15.24 cm)×6 inches (15.24 cm). The mold was sealed and placed in a horizontal air flow, programmable oven set to increase the temperature from 40° C. to 95° C. over a 5 hour interval, hold the temperature at 95° C. for 3 hours and then lower it to 60° C. for at least 2 hours before the end of the curing cycle. After the mold was opened, the polymer sheet was cut using a diamond blade saw into 2 inch (5.1 centimeters) test squares.
The photochromic test squares prepared in Part A were tested for photochromic response rates on an optical bench. […] The bench was fitted with a 150 watt Xenon arc lamp, a remote controlled shutter, a copper sulfate bath acting as a heat sink for the arc lamp, a Schott WG-320 nm cut-off filter which removes short wavelength radiation; neutral density filter(s) and a sample holder in which the square to be tested was inserted. A collimated beam of light from a tungsten lamp was passed through the square at a small angle normal to the square. After passing through the square, the light from the tungsten lamp was directed through a photopic filter attached to a detector. The photopic filter passes wavelengths such that the detector mimics the response of the human eye. The output signals from the detector(s) were processed by a radiometer.
Change in optical density (ΔOD) was determined by inserting a test square in the bleached state into the sample holder, adjusting the transmittance scale to 100%, opening the shutter from the Xenon lamp to provide ultraviolet radiation to change the test square from the bleached state to an activated (i.e., darkened) state, measuring the transmittance in the activated state; and calculating the change in optical density according to the formula Δ OD=log(100/%Ta) where %Ta is the percent transmittance in the activated state and the logarithm is to the base 10.
(§1) The Δ OD/Min, which represents the sensitivity of the photochromic compound's response to UV light, was measured over the first five (5) seconds of UV exposure, then expressed on a per minute basis. The saturation optical density (OD) was taken under identical conditions as the Δ OD/Min, except UV exposure was continued for 20 minutes for the examples in Table 1. The lambda max reported in Table 1 is the wavelength in the visible spectrum at which the maximum absorption of the activated (colored) form of the photochromic compound in a diethylene glycol bis(allyl carbonate) composition occurs.

[2] = lambda max of the activated (colored) form in the visible spectrum; format: physicochemical; details: activated form in a diethylene glycol bis(allyl carbonate) composition
Method: as §1, with “occurs. The Bleach Rate (T 1/2) is the time interval in seconds for the absorbance of the activated form of the naphthopyran in the test squares to reach one half the highest absorbance at room temperature (75° F., 23.9° C.) after removal of the source of activating light.” for “occurs.”

| Structure (SMILES) | ΔOD @ SATURATION [1] | ΔOD/MIN SENSITIVITY [1] | Bleach Rate (T1/2) [1] | LAMBDA MAX (VISIBLE) [2] |
| --- | --- | --- | --- | --- |
| COc1ccc(C2(c3ccc(OC)cc3)C=Cc3c(-c4cccn4C)c(OC(C)=O)c4ccccc4c3O2)cc1 [Example 1, 2,2-bis(4-methoxyphenyl)-5-(N-methylpyrrol-2-yl)-6-acetoxy-2H-naphtho[1,2-b]pyran] | 0.25 | 0.16 ΔOD/MIN | 1.23 min | 513 nm |
| COc1ccc(C2(c3ccc(OC)cc3)C=Cc3c(-c4ccc(OC)cc4OC)c(OC(C)=O)c4ccccc4c3O2)cc1 [Example 2, 2,2-bis(4-methoxyphenyl)-5-(2,4-dimethoxyphenyl)-6-acetoxy-2H-naphtho[1,2-b]pyran] | 0.55 | 0.15 ΔOD/MIN | 4.13 min | 511 nm |
| COc1ccc(C2(c3ccc(OC)cc3)C=Cc3c(Sc4ccccc4)c(O)c4ccccc4c3O2)cc1 [Example 3, 2,2-bis(4-methoxyphenyl)-5-phenylthio-6-hydroxy-2H-naphtho[1,2-b]pyran] | 1.76 | 0.34 ΔOD/MIN | > 10 min | 516 nm |
| COc1ccc(C2(c3ccc(OC)cc3)C=Cc3c(Sc4ccccc4)c(OC(C)=O)c4ccccc4c3O2)cc1 [Example 4, 2,2-bis(4-methoxyphenyl)-5-phenylthio-6-acetoxy-2H-naphtho[1,2-b]pyran] | 0.23 | 0.22 ΔOD/MIN | 0.7 min | 516 nm |
| COc1ccc(C2(c3ccc(OC)cc3)C=Cc3c(Cl)c(OC(C)=O)c4ccccc4c3O2)cc1 [Example 5, 2,2-bis(4-methoxyphenyl)-5-chloro-6-acetoxy-2H-naphtho[1,2-b]pyran] | 0.07 | 0.08 ΔOD/MIN | 0.9 min | 462 nm |
| COc1ccc(C2(c3ccc(OC)cc3)C=Cc3c(C)c(OC(C)=O)c4ccccc4c3O2)cc1 [Example 6, 2,2-bis(4-methoxyphenyl)-5-methyl-6-acetoxy-2H-naphtho[1,2-b]pyran] | 0.37 | 0.14 ΔOD/MIN | 2 min | 506 nm |
| Oc1c(Sc2ccccc2)c2c(c3ccccc13)OC1(C=C2)C2CC3CC(C2)CC1C3 (centres unmarked) [Example 7, 2,2'-spiroadamantylene-5-phenylthio-6-hydroxy-2H-naphtho[1,2-b]pyran] | 0.47 | 0.15 ΔOD/MIN | 3.08 min | 462 nm |
| CC(=O)Oc1c(Sc2ccccc2)c2c(c3ccccc13)OC1(C=C2)C2CC3CC(C2)CC1C3 (centres unmarked) [Example 8, 2,2'-spiroadamantylene-5-phenylthio-6-acetoxy-2H-naphtho[1,2-b]pyran] | 0.04 | 0.10 ΔOD/MIN | 1.13 min | 459 nm |
| COc1c(C)c2c(c3ccccc13)OC1(C=C2)C2CC3CC(C2)CC1C3 (centres unmarked) [Example 9, 2,2'-spiroadamantylene-5-methyl-6-methoxy-2H-naphtho[1,2-b]pyran] | 0.17 | 0.12 ΔOD/MIN | 2.55 min | 462 nm |
| COc1ccc(C2(c3ccc(OC)cc3)C=Cc3c(C(O)(c4ccccc4)c4ccccc4)c(O)c4ccccc4c3O2)cc1 [Example 10, 2,2-bis (4-methoxyphenyl)-5-diphenylmethylol-6-hydroxy-2H-naphtho[1,2-b]pyran] | 0.32 | 0.05 ΔOD/MIN | > 13.3 min | 482 nm |
| COc1ccc(C2(c3ccc(OC)cc3)C=Cc3c(C(O)(c4ccccc4)c4ccccc4)c(OC)c4ccccc4c3O2)cc1 [Example 11, 2,2-bis(4-methoxyphenyl)-5-diphenylmethylol-6-methoxy-[2H]-naphtho[1,2-b]pyran] | 0.19 | 0.10 ΔOD/MIN | 1.42 min | 467 nm |
